Measured values reported in PMC5913603, “Structure–activity relationships of strigolactones via a novel, quantitative in planta bioassay” (Journal of Experimental Botany, 2018).
Entries after “also recorded” stand apart in the source; their conditions may differ. Where two headings read alike, the source gives them in different places.

Legend:
[1] = Chemical stability in aqueous solutions, degradation followed by HPLC; assay type: physicochemical
Description: The compounds were first dissolved in methanol (30%) or acetonitrile (50%) and then diluted to the final concentrations with water. The time-course of degradation was monitored by HPLC using an Agilent Technologies HPLC chromatograph 1200 Series equipped with a photo-diode array (PDA) detector, a binary-gradient high-pressure pump, and an automatic sampler. The column used was a LiChroCART® 125-4 LiChrospher® 100 RP-18 (5 μm, Merck Millipore) maintained at 25 °C. The solvents were (A) water + 0.1% formic acid and (B) acetonitrile, and the flow rate was 0.8 ml min^–1. The initial mobile phase, 95% A / 5% B, was held for 3 min and then ramped linearly to 100% B at 23 min and held for 5 min before resetting to the original conditions. The sample injection volume was 10 μl. PDA detection was by absorbance in the 200–600-nm wavelength range. Peak detection was at the optimum wavelength (254 nm) and peak areas were used for quantification. Initial and subsequent measurements of peak area attributable to the tested compound were used to fit exponential half-life curves and to calculate first-order rate constants. Stability data allowed for calculation of the time in hours for half of the tested compound to be hydrolysed (t1/2).
Natural and synthetic SLs are rather sensitive to hydrolysis at pH 7 and are readily decomposed through the cleavage of the D-ring at pH 9.38 ([Vurro et al., 2016]). Therefore, differences in activity among SL analogues may be attributed to their instability in the aqueous medium. In order to address this point, the stability in aqueous solutions of the newly synthesized SL-D-lactams was tested, and compared to the (+)-GR24 standard ([Kannan and Zwanenburg, 2014]; [Halouzka et al., 2018]). Two different conditions were considered, a 30% solution of MeOH in water and a 1:1 solution of acetonitrile in water. As expected, stability in MeOH was highly compromised for all compounds, but to a greater extent for analogues showing both the Michael acceptor function (enol ether bridge) and an unprotected N in the D-lactam ring, as for rac-3, rac-4, rac-5, and rac-7 (Table 1): after a few hours 50% of the compounds were degraded. This was not surprising from a chemical point of view, as the functional group in SL-D-lactams is an aminal, which is more prone to hydrolysis than the acetal of the natural SL skeleton. […] For rac-5, the NH compound in the EGO10 family, the half-life dropped to 2 h.

[2] = molecular target: T1, AtD14 fused to firefly luciferase (D14::LUC) (Arabidopsis thaliana, UniProt Q9SQR3); test: Luminometer-based competition assay between rac-9 and (+)-GR24; assay type: in vivo; conditions: rac-9 constant at 10 μM, (+)-GR24 0.01–100 μM
T1 construct: a pDONOR207 carrying the D14 promoter fused to the D14 CDS; expressed in transfected cells
T1 sequence (Q9SQR3 1-267): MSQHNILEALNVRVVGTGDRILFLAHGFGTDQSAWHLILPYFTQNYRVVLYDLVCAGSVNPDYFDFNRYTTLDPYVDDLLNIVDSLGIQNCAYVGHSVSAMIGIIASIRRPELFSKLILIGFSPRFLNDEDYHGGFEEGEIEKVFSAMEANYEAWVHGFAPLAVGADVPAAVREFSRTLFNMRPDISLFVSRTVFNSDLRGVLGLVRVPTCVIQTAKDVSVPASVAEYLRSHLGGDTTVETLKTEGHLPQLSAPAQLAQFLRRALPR
Description: The efficacy values in these samples in terms of luminescence quenching were compared with those of samples receiving (+)-GR24 alone (positive control). […] Luciferase competition test between rac-9 and (+)-GR24. (A) Efficacy values for (+)-GR24 across a range of concentrations, normalized to the value at 1 μM, which was set to 100%. (B) Efficacy values for (+)-GR24 across the same range of concentrations as in (A), but in the presence of rac-9 at 10 μM. Data are means (±SD) of n=5 replicates, where each replicate consisted of at least three pooled individual seedlings and readings.

[3] = aqueous acetonitrile solution in HPLC vials, pH 6.7, 1:1 acetonitrile:water, 21 °C, pH 6.7, extrapolated from plots of peak area versus time, read-out: Half-life (t1/2, h) ACN:Water, 1:1 (converted)
[4] = aqueous methanol solution in HPLC vials, pH 6.7, 30% MeOH in water, 21 °C, pH 6.7, extrapolated from plots of peak area versus time, read-out: Half-life (t1/2, h) 30% MeOH (converted)
[5] = aqueous solutions in HPLC vials, summary statement in the discussion, read-out: Half-life time (t1/2), solvent not specified / depending on the solvent

CC1=C[C@H](O/C=C2/C(=O)O[C@@H]3c4ccccc4C[C@H]23)NC1=O (racemic) [rac-3] gave a half-life at 200 μg ml^–1 [1, 3] of 3.8 h, a half-life at 200 μg ml^–1 [1, 4] of about 3 h and a half-life at 200 μg ml^–1 [1, 5] of under 4 h.
CC1=C[C@H](O/C=C2/C(=O)O[C@H]3c4ccccc4C[C@@H]23)NC1=O (racemic) [rac-4] showed a half-life at 200 μg ml^–1 [1, 3] of 4.4 h and a half-life at 200 μg ml^–1 [1, 4] of about 3 h.
In the case of CC1=CC(C2Cc3c(n(C)c4ccccc34)C2=O)NC1=O (racemic) [rac-9], the half-life at 200 μg ml^–1 [1, 3] is reported as 2900 h, the half-life at 200 μg ml^–1 [1, 4] is reported as 1100 h and the half-life at 200 μg ml^–1 [1, 5] is reported as 1000 to 3000 h. For the same compound, the “Antagonism of (+)-GR24” value [2] was “no antagonistic behaviour; also recorded: did not possess antagonistic activity”.
